Test results: patent US20240335372A1, “Sustained-Release Vaginal Films” (priority 2021, published 2024)
Like-named read-outs stand apart in the source and are kept apart here. Values belong to the compound of their own block, whether it stands above or below them.

How the values were obtained:
[1] = Macaque (NHP) pharmacokinetic study after vaginal film administration: vaginal swabs, plasma, PBMCs
Protocol: In NHP film evaluations, both vaginal fluid and blood components (e.g. plasma) samples were collected for at least 31 days post-film administration to assess drug levels and evaluate vaginal release and systemic exposure. […] In study 2, MPT films with increased LNG dose (e.g., 3.5 mg vs. 1 mg) were evaluated. […] Study 3 utilized the same formulation developed for Study 2 by simply replacing LNG with ENG.
The developed MPT film was administered in six macaques.

[2] = In vitro drug release of APIs from the extended-release polymer matrix film (Eudragit with PLGA); type: physicochemical; conditions: FIG. 3; API in Eudragit/PLGA film
Protocol: An initial screening study was conducted to identify suitable polymers for this application.
Based on visual disintegration it was identified that only the combination of PLGA and Eudragit polymers was successful in extending the disintegration time (FIG. 2). […] This burst release could be attributed to the hydrophilic nature of the drug.

[3] = humans; cited from earlier work
[4] = EFdA-TP elimination half-life in macaques; type: in vivo; conditions: macaques vs humans
[5] = macaques; cited from earlier work

detectable levels present in the vaginal fluid until day ([1]; female, macaque, in vivo): 31 days | detected in swabs until day ([1]; female, macaque, in vivo): 31 days | duration of release, vaginal swab and plasma levels ([1]; female, macaque, in vivo): 30 days | animals above BLQ ([1]; female, macaque, in vivo, 28 day): 2/3 | animals above BLQ ([1]; female, macaque, in vivo, 31 day): 1/3 | drug levels in vivo ([1]; in vivo): sustained drug levels | plasma half-life compared with previously reported values after oral administration ([1]; in vivo): significantly higher
SMILES: C#C[C@]1(CO)O[C@@H](n2cnc3c(N)nc(F)nc32)C[C@@H]1O [EFdA, 4′-Ethynyl-2-fluoro-2′-deoxyadenosine]

animals above BLQ ([1]; female, macaque, in vivo): 0/3 | animals with swab levels above BLQ ([1]; female, macaque, in vivo): 2/3 | detectable levels present in the vaginal fluid until day ([1]; female, macaque, in vivo): 31 days | duration of release, vaginal swab and plasma levels ([1]; female, macaque, in vivo): 30 days | animals above BLQ ([1]; female, macaque, in vivo, 7 day): 1/3 | plasma half-life compared with previously reported values after oral administration ([1]; in vivo): significantly higher
SMILES: C#C[C@]1(O)CC[C@H]2[C@@H]3CCC4=CC(=O)CC[C@@H]4[C@H]3CC[C@@]21CC [LNG, levonorgestrel]

drug levels in vivo ([1]; in vivo): sustained drug levels
SMILES: C#C[C@]1(O)CC[C@H]2[C@@H]3CCC4=CC(=O)CC[C@@H]4[C@H]3C(=C)C[C@@]21CC [ENG, etonogestrel]

SMILES: CC(C)OC(=O)[C@H](C)N[P@](=O)(OC[C@H]1O[C@@H](n2ccc(=O)[nH]c2=O)[C@](C)(F)[C@@H]1O)Oc1ccccc1 [SBV, Sofosbuvir]
drug release profile in the extended-release polymer matrix [2]: burst release

day until which PBMC levels were above the target (0.05 pmol/10^6 PBMCs) ([1]; MPT film LNG 16 mg, EFdA 14 mg, six macaques): ≥ 14 day | average concentration in PBMCs, remained detectable until day 31 ([1]; MPT film LNG 16 mg, EFdA 14 mg, six macaques, day 31): 0.018 pmol | fold shorter elimination half-life in macaques than in humans [4]: 4-5 times
SMILES: C#C[C@]1(COP(=O)(O)OP(=O)(O)OP(=O)(O)O)O[C@@H](n2cnc3c(N)nc(F)nc32)C[C@@H]1O [EFdA-TP]
elimination half-life [3]: 190 h | elimination half-life [5]: ~40 h

drug release profile in the extended-release polymer matrix [2]: burst release
SMILES: C=C1[C@H](CO)[C@@H](O)C[C@@H]1n1cnc2c(=O)[nH]c(N)nc21 [ETV, Entecavir]

SMILES: CCN1C[C@H](C)n2c(c(O)c3c(=O)n(Cc4ccc(F)c(Cl)c4)nc(C(=O)NC)c32)C1=O [MK-2048]
drug release profile in the extended-release polymer matrix [2]: extended release
